In patent publication US20050101542A1, “Combination therapy for controlling appetites” (Regents of the University of California, priority 2002, published 2005):
Where “and” joins values, the source holds several entries; their conditions need not be identical. Identical values can stand only once.

Assays:
Hepatocyte = experiment: [14C]oleate oxidation to ketone bodies in hepatocytes; type: cell-based, rat; details: 10 min incubation
Description: OEA-like compounds and modulators can be used to modulate fat metabolism. Such compounds can also be assayed for their effect on fatty acid metabolism. The effect of the candidate compound on fatty acid metabolism can be measured by measurements of fatty acid oxidation in primary cultures of liver cells. Hepatocytes may be used to determine the rate of oleate oxidation to ketone bodies and carbon dioxide. Such cells can be isolated from adult rat liver by enzymatic digestion as described by Beynen et al. in Diabetes 28:828 (1979). Cells typically are cultured in suspension and incubated in Krebs-Henseleit's bicarbonate medium supplemented with bovine serum albumin and glucose as described by Guzman & Geelen, Biochem. J., 287:487 (1992). The protein concentration of the cultured cells can be determined and cells seeded in 2 ml media so that 4-6 mg protein per ml is present in the reaction mixture. […] Protein concentration can be determined using a Lowry assay. The rate of oleate conversion into ketone bodies may be expressed as nmol of oleate oxidized per hour per mg protein and may be determined using liquid scintillation counting. […]

human PPARα = molecular target: T1, human PPARα (Homo sapiens, UniProt Q07869); experiment: GAL4 chimeric receptor transactivation assay in HeLa cells, PPARα; type: cell-based; details: HeLa transactivation assay, 7 hours; read-out: EC50 for PPARα activation
T1 construct: expressed in transfected cells; host or cells: HeLa (clonal reporter line HLR, stably transfected with pFA-PPARα)
T1 sequence (Q07869 239-466 limits assumed): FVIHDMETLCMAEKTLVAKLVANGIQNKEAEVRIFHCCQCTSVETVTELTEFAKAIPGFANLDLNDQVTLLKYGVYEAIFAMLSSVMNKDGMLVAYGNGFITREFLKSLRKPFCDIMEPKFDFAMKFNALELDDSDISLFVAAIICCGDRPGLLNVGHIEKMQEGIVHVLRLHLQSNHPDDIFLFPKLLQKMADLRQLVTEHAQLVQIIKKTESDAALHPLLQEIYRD
Description: (§1) Eighteen hours following transfection, the culture media was replaced with supplemented DMEM containing hygromycin (100 μg-ml^−1, Calbiochem). After 4 weeks in culture, the surviving clones were isolated and analyzed by luciferase assay. […] The cells were cultured in supplemented DMEM containing hygromycin and G418. For transactivation assays, cells were seeded in 6-well plates (50,000 cells per well) and incubated for 7 hours in supplemented DMEM containing hygromycin and G418, plus appropriate concentrations of test compounds. Dual-luciferase reporter assay system (Promega) and an MLX Microtiter® plate luminometer (Dynex) were used to determine luciferase activity in cell lysates.

[1] = system: retinoid X receptor (RXR); experiment: GAL4 chimeric receptor transactivation assay in HeLa cells, RXR; type: cell-based, human
Description: (§2) Transactivator plasmids pFA-PPARα, pFA-PPARδ, pFA-PPARγ and pFA-RXR, which encoded for the […] Of hPPARα ? ((499-1404), hPPARδ (412-1320), hPPARγ (610-1434) and hRXR (402-1389) fused to the DNA-binding domain (residues 1-147) Of yeast GAL4 under control of the human cytomegalovirus (CMV) promoter were generated. The plasmids contained a neomycin-resistance gene to provide stable selection with G418 (200 μg-ml^−1; Calbiochem). The HeLa cells were cultured in Dulbecco's-modified Eagles's medium (DMEM) supplemented with fetal bovine serum (10%). The cells were transfected with Fugene 6 (3 μl, Roche) Containing the pFR-luc plasmid (1 μg, Stratagene). Eighteen hours following transfection, the culture media was replaced with supplemented DMEM containing hygromycin (100 μg-ml^−1, Calbiochem). After 4 weeks in culture, the surviving clones were isolated and analyzed by luciferase assay. […] The cells were cultured in supplemented DMEM containing hygromycin and G418. For transactivation assays, cells were seeded in 6-well plates (50,000 cells per well) and incubated for 7 hours in supplemented DMEM containing hygromycin and G418, plus appropriate concentrations of test compounds. Dual-luciferase reporter assay system (Promega) and an MLX Microtiter® plate luminometer (Dynex) were used to determine luciferase activity in cell lysates. […]

human PPARδ = molecular target: T2, human PPARδ (Homo sapiens, UniProt Q03181); experiment: GAL4 chimeric receptor transactivation assay in HeLa cells, PPARδ; type: cell-based; details: read-out: EC50 for PPARβ activation
T2 construct: expressed in transfected cells; host or cells: HeLa (clonal reporter line HLR, stably transfected with pFA-PPARδ)
T2 sequence (Q03181 211-439 limits assumed): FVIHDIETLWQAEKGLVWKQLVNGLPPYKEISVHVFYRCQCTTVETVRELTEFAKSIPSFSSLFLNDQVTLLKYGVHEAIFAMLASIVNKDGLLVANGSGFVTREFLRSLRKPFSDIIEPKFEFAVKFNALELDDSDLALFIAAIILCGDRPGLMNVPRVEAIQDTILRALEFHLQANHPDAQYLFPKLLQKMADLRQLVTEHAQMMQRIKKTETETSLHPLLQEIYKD
Description: as §1

human PPARγ = molecular target: T3, human PPARγ (Homo sapiens, UniProt P37231); experiment: GAL4 chimeric receptor transactivation assay in HeLa cells, PPARγ; type: cell-based
T3 construct: expressed in transfected cells; host or cells: HeLa (clonal reporter line HLR, stably transfected with pFA-PPARγ)
T3 sequence (P37231 238-503 limits assumed): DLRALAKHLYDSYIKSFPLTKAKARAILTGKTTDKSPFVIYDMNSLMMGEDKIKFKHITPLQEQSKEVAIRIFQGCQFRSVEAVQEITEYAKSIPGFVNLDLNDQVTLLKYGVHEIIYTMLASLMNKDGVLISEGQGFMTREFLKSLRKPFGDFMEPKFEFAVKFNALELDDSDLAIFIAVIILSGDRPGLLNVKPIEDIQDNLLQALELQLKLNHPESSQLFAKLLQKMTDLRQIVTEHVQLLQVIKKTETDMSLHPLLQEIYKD
Description: as §2

Question: With CCCCCCCC/C=C\CCCCCCCC(=O)NCCO [OEA, Z-2-hydroxyethyl octadec-9-enamide] as the molecule, how does the “Stimulatory effect of 10 μM OEA on [14C]oleate oxidation to ketone bodies” value (Hepatocyte) read?
Answer: 21+−6% and 21 ± 6 (n = 4) %

Question: And the EC50 (human PPARα)?
Answer: 120 nM

Question: What about the “effect on RXR” value [1] of the same molecule?
Answer: no effect

Question: What about the EC50 (human PPARδ) of the same molecule?
Answer: 1100 ± 100 nM

Question: What about the “effect on PPARγ” value (human PPARγ) of the same molecule?
Answer: no effect
